{"source": "patent US11912670B1", "about": "“Ethyl 4-(5-(3-fluorophenyl)-4-phenyl-4H-1,2,4-triazol-3-ylthio)butanoate as an antimicrobial compound” (KING FAISAL UNIVERSITY, priority 2023, dated 2024)", "type_in_all_cases": "cell-based", "key": {"Pseudomonas aeruginosa": {"test_system": "Pseudomonas aeruginosa", "assay": "Agar plate disc-diffusion, antibacterial (gram negative)", "conditions": "nutrient agar, 37° C., 48 hours, DMSO control zone subtracted", "method": "(§1) The agar plate disc-diffusion method was applied. […] The discs were then placed onto the surface of agar plates (nutrient agar for bacteria and Sabouraud's dextrose agar for fungi) seeded with the test organism. Each plate contained 15 mL of the agar medium, previously seeded with 0.2 mL of the broth culture of each organism pregrown for 18 hours. The plates were incubated at 37° C. for 48 hours, and 72 hours for fungi. The inhibition zones were measured in mm. Discs impregnated with DMSO were used as a control, and its inhibition zone was subtracted from the tested compound actual inhibition zone."}, "Escherichia coli": {"test_system": "Escherichia coli", "assay": "Agar plate disc-diffusion, antibacterial (gram negative)", "conditions": "nutrient agar, 37° C., 48 hours, DMSO control zone subtracted", "method": "as §1"}, "Staphylococcus aureus": {"test_system": "Staphylococcus aureus", "assay": "Agar plate disc-diffusion, antibacterial (gram positive)", "conditions": "nutrient agar, 37° C., 48 hours, DMSO control zone subtracted", "method": "as §1"}, "Bacillus cereus": {"test_system": "Bacillus cereus", "assay": "Agar plate disc-diffusion, antibacterial (gram positive)", "conditions": "nutrient agar, 37° C., 48 hours, DMSO control zone subtracted", "method": "as §1"}, "Aspergillus flavus": {"test_system": "Aspergillus flavus", "assay": "Agar plate disc-diffusion, antifungal", "conditions": "Sabouraud's dextrose agar, 72 hours, DMSO control zone subtracted", "method": "as §1"}, "[1]": {"test_system": "Chrysosporium keratinophilum", "assay": "Agar plate disc-diffusion, antifungal", "conditions": "Sabouraud's dextrose agar, 72 hours, DMSO control zone subtracted", "method": "as §1"}, "[2]": {"conditions": "A = concentration of comp. = 10,000 μL"}, "[3]": {"conditions": "B = concentration of comp. = 30,000 μL"}, "[4]": {"conditions": "C = concentration of comp. = 50,000 μL"}}, "data": [{"compound": "CCOC(=O)CCCSc1nnc(-c2cccc(F)c2)n1-c1ccccc1", "note": "[III, ethyl 4-(5-(3-fluorophenyl)-4-phenyl-4H-1,2,4-triazol-3-ylthio)butanoate]", "values": [{"measurement": "inhibition zone, Pseudomonas aeruginosa, A", "setting": "Pseudomonas aeruginosa; [2]", "value": 25, "unit": "mm"}, {"measurement": "inhibition zone, Pseudomonas aeruginosa, B", "setting": "Pseudomonas aeruginosa; [3]", "value": 29, "unit": "mm"}, {"measurement": "inhibition zone, Pseudomonas aeruginosa, C", "setting": "Pseudomonas aeruginosa; [4]", "value": 46, "unit": "mm"}, {"measurement": "inhibition zone, Escherichia coli, A", "setting": "Escherichia coli; [2]", "value": 22, "unit": "mm"}, {"measurement": "inhibition zone, Escherichia coli, B", "setting": "Escherichia coli; [3]", "value": 29, "unit": "mm"}, {"measurement": "inhibition zone, Escherichia coli, C", "setting": "Escherichia coli; [4]", "value": 42, "unit": "mm"}, {"measurement": "inhibition zone, Staphylococcus aureus, A", "setting": "Staphylococcus aureus; [2]", "value": 18, "unit": "mm"}, {"measurement": "inhibition zone, Staphylococcus aureus, B", "setting": "Staphylococcus aureus; [3]", "value": 25, "unit": "mm"}, {"measurement": "inhibition zone, Staphylococcus aureus, C", "setting": "Staphylococcus aureus; [4]", "value": 30, "unit": "mm"}, {"measurement": "inhibition zone, Bacillus Cereus, A", "setting": "Bacillus cereus; [2]", "value": 27, "unit": "mm"}, {"measurement": "inhibition zone, Bacillus Cereus, B", "setting": "Bacillus cereus; [3]", "value": 29, "unit": "mm"}, {"measurement": "inhibition zone, Bacillus Cereus, C", "setting": "Bacillus cereus; [4]", "value": 40, "unit": "mm"}, {"measurement": "inhibition zone, Aspergillus flavus, A", "setting": "Aspergillus flavus; [2]", "value": 26, "unit": "mm"}, {"measurement": "inhibition zone, Aspergillus flavus, B", "setting": "Aspergillus flavus; [3]", "value": 28, "unit": "mm"}, {"measurement": "inhibition zone, Aspergillus flavus, C", "setting": "Aspergillus flavus; [4]", "value": 40, "unit": "mm"}, {"measurement": "inhibition zone, Chrysosporium keratinophilum, A", "setting": "[1]; A = concentration of comp. = 10,000 μg/mL", "value": 25, "unit": "mm"}, {"measurement": "inhibition zone, Chrysosporium keratinophilum, B", "setting": "[1]; [3]", "value": 28, "unit": "mm"}, {"measurement": "inhibition zone, Chrysosporium keratinophilum, C", "setting": "[1]; [4]", "value": 48, "unit": "mm"}]}]}
